According to PMC11676667, “Pharmacokinetics of Oral Cannabinoid Δ8-Tetrahydrocannabivarin and Its Main Metabolites in Healthy Participants” (Pharmaceuticals, 2024):
Where two headings read alike, the source gives them in different places.

Experiment: Plasma pharmacokinetics after single oral dose of Δ8-THCV in MCT oil (LC-MS/MS, non-compartmental analysis)
Type: in vivo, human
Parameters: Clast (last quantifiable concentration): unit not given here
Conditions: for Clast (last quantifiable concentration) / tlast (time to last quantifiable concentration) / concentration at 0.5 h / concentration at 1 h / concentration at 2 h / concentration at 4 h / concentration at 6 h / concentration at 8 h / AUC(0-t) / Cmax / MRT / Tmax: plasma; for plasma concentration: Predose; for concentration at 0.5 h / concentration at 1 h / concentration at 2 h / concentration at 4 h / concentration at 6 h / concentration at 8 h / AUC(0-t) / Cmax / MRT / Tmax: human; for concentration at 0.5 h / concentration at 1 h / concentration at 2 h / concentration at 4 h / concentration at 6 h / concentration at 8 h: oral; for AUC(0-t) / Cmax / MRT / Tmax: po; for MRT: read-out: MRT (mean residence time); for Tmax: read-out: tmax
Protocol: The study was a two-phase, dose-ranging, placebo-controlled trial in 21 healthy participants to assess the safety, tolerability, PK, and PD of an oral formulation of Δ8-THCV. A detailed description of the study was published elsewhere. The study product was a medium-chain triglyceride (MCT) oil oral formulation of Δ8-THCV at a concentration of 50 mg/mL. […] MCT oil was used as placebo.
Twenty-one participants were enrolled in the clinical study and plasma samples from 15 participants were sent to our laboratory for pharmacokinetic evaluation. Of these, 3 participants were enrolled in Phase 1, an unblinded, placebo-controlled, single ascending dose design and 12 were enrolled in Phase 2, a double-blind, randomized, placebo-controlled, within-participant crossover design. At each study session, participants received one of the following oral doses: placebo, 12.5 mg, 25 mg, 50 mg, 100 mg, and 200 mg of the aforementioned Δ8-THCV formulation in MCT. Study visits were separated by a washout period of a minimum of one week and maximum of 28 days. Participants entered the research facility the night before the session and received the study product in the morning after a standardized high-fat, high-calorie breakfast. PK blood samples included in this analysis were collected prior to dosing and 0.5, 1, 2, 4, 6, and 8 h after dose. Immediately following collection into K2EDTA tubes, blood samples were placed on wet ice, centrifuged, and plasma was immediately frozen at −80 °C until shipment to the bioanalytical laboratory (iC42 Clinical Research and Development, University of Colorado, Aurora, CO, USA) on dry ice.
Plasma samples were analyzed using a validated high-performance liquid chromatography–tandem mass spectrometry (LC-MS/MS) assay. The assay included Δ8-THCV and its main metabolites 11-OH-Δ8-THCV and Δ8-THCV-COOH, Δ9-THCV and its main metabolite Δ9-THCV-COOH, and Δ9-THC and Δ8-THC as well as their main metabolites (Figure 3). The complete list of analyzed compounds and a summary of the key performance parameters of the assay are presented in Appendix A and Table A1 and Table A2. […] For the PK analysis, concentrations below the lower limit of quantification were set to 0 ng/mL. PK parameters were calculated using non-compartmental analysis (Phoenix WinNonlin version 8.4., Certara, Princeton, NJ, USA). Statistical analysis was carried out using GraphPad Prism (version 10, Boston, MA, USA).

[1] = 100 mg single oral Δ8-THCV in MCT oil, Mean (±SD)
[2] = 100 mg single oral Δ8-THCV in MCT oil, Median (Range)
[3] = 200 mg single oral Δ8-THCV in MCT oil, Mean (±SD)
[4] = 200 mg single oral Δ8-THCV in MCT oil, Median (Range)
[5] = 12.5 mg, 12.5 mg Δ8-THCV dose, Mean (SD, %CV)
[6] = 12.5 mg, 12.5 mg Δ8-THCV dose, Median (IQ Range)
[7] = 25 mg, 25 mg Δ8-THCV dose, Mean (SD, %CV)
[8] = 25 mg, 25 mg Δ8-THCV dose, Median (IQ Range)
[9] = 50 mg, 50 mg Δ8-THCV dose, Mean (SD, %CV)
[10] = 50 mg, 50 mg Δ8-THCV dose, Median (IQ Range)
[11] = 100 mg, 100 mg Δ8-THCV dose, Mean (SD, %CV)
[12] = 100 mg, 100 mg Δ8-THCV dose, Median (IQ Range)
[13] = 200 mg, 200 mg Δ8-THCV dose, Mean (SD, %CV)
[14] = 200 mg, 200 mg Δ8-THCV dose, Median (IQ Range)
[15] = 100 mg, 100 mg single oral Δ8-THCV in MCT oil, Mean (±SD)
[16] = 100 mg, 100 mg single oral Δ8-THCV in MCT oil, Median (Range)
[17] = 200 mg, 200 mg single oral Δ8-THCV in MCT oil, Mean (±SD)
[18] = 200 mg, 200 mg single oral Δ8-THCV in MCT oil, Median (Range)

## CCCCCc1cc(O)c2c(c1)OC(C)(C)[C@@H]1CC=C(C(=O)O)CC21 (single isomer, unassigned; (+)) [Δ8-THC-COOH, (+)-11-nor-Δ8-THC-9-carboxylic acid]
[1]
  Clast (last quantifiable concentration): 1.3 (±0.2)
  tlast (time to last quantifiable concentration): 5.8 (±1.3)
[2]
  Clast (last quantifiable concentration): 1.3 (1–1.7)
  tlast (time to last quantifiable concentration): 6 (4–8)
[3]
  Clast (last quantifiable concentration): 1.9 (±0.6)
  tlast (time to last quantifiable concentration): 7.5 (±1.2)
[4]
  Clast (last quantifiable concentration): 1.8 (1.1–2.8)
  tlast (time to last quantifiable concentration): 8 (4–8)
12.5 mg Δ8-THCV dose, Mean (SD, %CV)
  plasma concentration: 0 (±0, --) ng/mL
12.5 mg Δ8-THCV dose, Median (IQ Range)
  plasma concentration: 0 (0–0) ng/mL
25 mg Δ8-THCV dose, Mean (SD, %CV)
  plasma concentration: 0 (±0, --) ng/mL
25 mg Δ8-THCV dose, Median (IQ Range)
  plasma concentration: 0 (0–0) ng/mL
50 mg Δ8-THCV dose, Mean (SD, %CV)
  plasma concentration: 0 (±0, --) ng/mL
50 mg Δ8-THCV dose, Median (IQ Range)
  plasma concentration: 0 (0–0) ng/mL
100 mg Δ8-THCV dose, Mean (SD, %CV)
  plasma concentration: 0 (±0, --) ng/mL
100 mg Δ8-THCV dose, Median (IQ Range)
  plasma concentration: 0 (0–0) ng/mL
200 mg Δ8-THCV dose, Mean (SD, %CV)
  plasma concentration: 0 (±0, --) ng/mL
200 mg Δ8-THCV dose, Median (IQ Range)
  plasma concentration: 0 (0–0) ng/mL
[5]
  concentration at 0.5 h: 0 ng/mL
  concentration at 1 h: 0 ng/mL
  concentration at 2 h: 0 ng/mL
  concentration at 4 h: 0 ng/mL
  concentration at 6 h: 0 ng/mL
  concentration at 8 h: 0 ng/mL
[6]
  concentration at 0.5 h: 0 ng/mL
  concentration at 1 h: 0 ng/mL
  concentration at 2 h: 0 ng/mL
  concentration at 4 h: 0 ng/mL
  concentration at 6 h: 0 ng/mL
  concentration at 8 h: 0 ng/mL
[7]
  concentration at 0.5 h: 0 ng/mL
  concentration at 1 h: 0 ng/mL
  concentration at 2 h: 0 ng/mL
  concentration at 4 h: 0 ng/mL
  concentration at 6 h: 0 ng/mL
  concentration at 8 h: 0 ng/mL
[8]
  concentration at 0.5 h: 0 ng/mL
  concentration at 1 h: 0 ng/mL
  concentration at 2 h: 0 ng/mL
  concentration at 4 h: 0 ng/mL
  concentration at 6 h: 0 ng/mL
  concentration at 8 h: 0 ng/mL
[9]
  concentration at 0.5 h: 0 ng/mL
  concentration at 1 h: 0 ng/mL
  concentration at 2 h: 0 ng/mL
  concentration at 4 h: 0 ng/mL
  concentration at 6 h: 0 ng/mL
  concentration at 8 h: 0 ng/mL
[10]
  concentration at 0.5 h: 0 ng/mL
  concentration at 1 h: 0 ng/mL
  concentration at 2 h: 0 ng/mL
  concentration at 4 h: 0 ng/mL
  concentration at 6 h: 0 ng/mL
  concentration at 8 h: 0 ng/mL
[11]
  concentration at 0.5 h: 0 ng/mL
  concentration at 1 h: 0 ng/mL
  concentration at 2 h: 0 ng/mL
  concentration at 4 h: 0.4 ng/mL
  concentration at 6 h: 0.6 ng/mL
  concentration at 8 h: 0.1 ng/mL
[12]
  concentration at 0.5 h: 0 ng/mL
  concentration at 1 h: 0 ng/mL
  concentration at 2 h: 0 ng/mL
  concentration at 4 h: 0 ng/mL
  concentration at 6 h: 0 ng/mL
  concentration at 8 h: 0 ng/mL
[13]
  concentration at 0.5 h: 0 ng/mL
  concentration at 1 h: 0 ng/mL
  concentration at 2 h: 0.4 ng/mL
  concentration at 4 h: 1.3 ng/mL
  concentration at 6 h: 1.8 ng/mL
  concentration at 8 h: 1.6 ng/mL
[14]
  concentration at 0.5 h: 0 ng/mL
  concentration at 1 h: 0 ng/mL
  concentration at 2 h: 0 ng/mL
  concentration at 4 h: 1.7 ng/mL
  concentration at 6 h: 2 ng/mL
  concentration at 8 h: 1.6 ng/mL
[15]
  AUC(0-t): 2.4 ng·h/mL
  Cmax: 1.4 ng/mL
  MRT: 5.2 h
  Tmax: 5 h
[16]
  AUC(0-t): 1.6 ng·h/mL
  Cmax: 1.4 ng/mL
  MRT: 5.3 h
  Tmax: 5 h
[17]
  AUC(0-t): 8.1 ng·h/mL
  Cmax: 2.4 ng/mL
  MRT: 5.7 h
  Tmax: 6.1 h
[18]
  AUC(0-t): 9.6 ng·h/mL
  Cmax: 2.5 ng/mL
  MRT: 5.8 h
  Tmax: 6 h
Of 504 plasma samples from 15 participants after oral Δ8-THCV
  number of positive plasma samples: 49
One subject after oral Δ8-THCV in MCT oil, Figure A1
  concentration in representative plasma sample: 1.4 ng/mL
